Measurements taken from patent US8278345B2, “Inhibitors of glutaminyl cyclase” (Probiodrug AG, priority 2006, dated 2012).
Read-outs that look alike come from different tables or passages of the source.

Tests used:
hQC = hQC (Homo sapiens, UniProt Q16769); experiment: Inhibitor assay for glutaminyl cyclase activity (fluorometric, H-Gln-βNA / H-Gln-AMC); format: biochemical
In short: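 Coupled fluorometric assay at 30 °C with pyroglutamyl aminopeptidase, in Tris/HCl pH 8.0 with EDTA, substrate H-Gln-βNA (0.2 mM; ex/em 320/410 nm) or H-Gln-AMC (ex/em 380/460 nm), initiated by QC. Screening: 4 mM inhibitor, substrate at 1 KM; Ki from progress curves fitted to competitive inhibition.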

[1] = compound from preparative synthesis, purified, read-out: IC50 hQC
[2] = compound from preparative synthesis, purified

hQC, sequence (Q16769 29-361): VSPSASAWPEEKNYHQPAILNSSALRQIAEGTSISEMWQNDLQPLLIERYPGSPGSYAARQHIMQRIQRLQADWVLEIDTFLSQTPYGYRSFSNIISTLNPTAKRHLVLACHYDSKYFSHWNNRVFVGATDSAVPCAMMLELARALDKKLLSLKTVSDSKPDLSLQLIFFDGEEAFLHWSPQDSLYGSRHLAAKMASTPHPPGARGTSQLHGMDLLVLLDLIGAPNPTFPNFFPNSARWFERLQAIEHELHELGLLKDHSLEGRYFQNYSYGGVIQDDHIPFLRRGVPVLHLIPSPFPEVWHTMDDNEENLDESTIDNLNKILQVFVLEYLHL

SMILES | IC50 (hQC; [1]) | IC50 (hQC; read-out: IC50) | melting point | Ki (hQC; [2])
CCCC(=O)C1=C(O)C(=O)N(c2ccc3[nH]cnc3c2)C1c1ccc(-c2ccccn2)cc1 (stereo not drawn) [Compound 387, 1-(1H-Benzoimidazol-5-yl)-4-butyryl-3-hydroxy-5-(4-pyridin-2-yl-phenyl)-1,5-dihydro-pyrrol-2-one] | 1.2 nM | 4 nM | 294 °C | –
CC(=O)C1=C(O)C(=O)N(c2ccc3[nH]cnc3c2)C1c1ccc2nonc2c1 (stereo not drawn) [Compound 403, 4-Acetyl-1-(1H-benzoimidazol-5-yl)-5-benzo[c][1,2,5]oxadiazol-5-yl-3-hydroxy-1,5-dihydro-pyrrol-2-one] | 28.3 nM | 4 nM | 175 °C | –
O=C1C(O)=C(c2ccccc2)C(c2cnc3ccccc3c2)N1c1ccc2[nH]cnc2c1 (stereo not drawn) [Compound 420, 1-(1H-Benzoimidazol-5-yl)-3-hydroxy-4-phenyl-5-quinolin-3-yl-1,5-dihydro-pyrrol-2-one] | 32 nM | 4 nM | 108 °C | –
CCCC(=O)C1=C(O)C(=O)N(c2ccc3[nH]cnc3c2)C1c1ccc2nonc2c1 (stereo not drawn) [Compound 421, 1-(1H-Benzoimidazol-5-yl)-5-benzo[c][1,2,5]oxadiazol-5-yl-4-butyryl-3-hydroxy-1,5-dihydro-pyrrol-2-one] | 246 nM | 40 nM | 266 °C | –
CC(=O)C1=C(O)C(=O)N(c2ccc3[nH]cnc3c2)C1c1cc(Br)ccc1F (stereo not drawn) [Compound 437, 4-Acetyl-1-(1H-benzoimidazol-5-yl)-5-(5-bromo-2-fluoro-phenyl)-3-hydroxy-1,5-dihydro-pyrrol-2-one] | 118 nM | 4 nM | 195 °C | –
O=C(C1=C(O)C(=O)N(c2ccc3[nH]cnc3c2)C1c1ccc2nonc2c1)C1CC1 (stereo not drawn) [Compound 440, 1-(1H-Benzoimidazol-5-yl)-5-benzo[c][1,2,5]oxadiazol-5-yl-4-cyclopropanecarbonyl-3-hydroxy-1,5-dihydro-pyrrol-2-one] | 11.4 nM | 4 nM | 170 °C | –
O=C1C(O)=C(c2ccccc2)C(c2cc(F)cc(F)c2F)N1c1ccc2[nH]cnc2c1 (stereo not drawn) [Compound 445, 1-(1H-Benzoimidazol-5-yl)-3-hydroxy-4-phenyl-5-(2,3,5-trifluoro-phenyl)-1,5-dihydro-pyrrol-2-one] | 2.6 nM | 4 nM | 150 °C | –
O=C(C1=C(O)C(=O)N(c2ccc3[nH]cnc3c2)C1c1ccc2cccc(O)c2n1)C1CC1 (stereo not drawn) [Compound 446, 1-(1H-Benzoimidazol-5-yl)-4-cyclopropanecarbonyl-3-hydroxy-5-(8-hydroxy-quinolin-2-yl)-1,5-dihydro-pyrrol-2-one] | 1.35 nM | 4 nM | 155 °C | –
CC1=C(O)C(=O)N(c2ccc3[nH]cnc3c2)C1c1cccc(Cl)c1Cl (stereo not drawn) [Compound 468, 1-(1H-benzo[d]imidazol-5-yl)-5-(2,3-dichlorophenyl)-3-hydroxy-4-methyl-1H-pyrrol-2(5H)-one] | – | 75 nM | 162 to 174 °C | 14.6 nM
CC1=C(O)C(=O)N(c2ccc3[nH]cnc3c2)C1c1cc(F)c(F)cc1F (stereo not drawn) [Compound 469, 1-(1H-benzo[d]imidazol-5-yl)-5-(2,4,5-trifluorophenyl)-3-hydroxy-4-methyl-1H-pyrrol-2(5H)-one] | – | 233 nM | 184 °C | 53.6 nM
